BindingDB's records for doi:10.1021/jm010244+ (Axys Pharmaceuticals, 2001)

Target: plasmin (Homo sapiens)
Experiment: The compound was tested for inhibition of human plasmin

| Compound | Ki [nM] |
| --- | --- |
| Cc1cc2[nH]c(-c3cccc(-c4ccccc4)c3O)cc2cc1C(=N)N [2-(2-Hydroxy-biphenyl-3-yl)-6-methyl-1H-indole-5-carboxamidine] | 210 |
| N=C(N)c1ccc2[nH]c(-c3cccc(-c4ccccc4)c3O)cc2c1Cl [4-Chloro-2-(2-hydroxy-biphenyl-3-yl)-1H-indole-5-carboxamidine] | 3000 |
